# Laboratory results taken from US20100298141A1, “SUBSTITUTED PYRIDINE N-OXIDE HERBICIDES” (E. I. DU PONT DE NEMOURS AND COMPANY, priority 2007, published 2010).
# Experiments:
# Experiment in all cases: Test F preemergence test
# Surinam grass = format: in vivo, Brachiaria decumbens; details: scale 0 to 100
# From the text: (§1) Seeds of plant species selected from bermudagrass (Cynodon dactylon), Surinam grass (Brachiaria decumbens), large crabgrass (Digitaria sanguinalis), green foxtail (Setaria viridis), goosegrass (Eleusine indica), johnsongrass (Sorghum halepense), kochia (Kochia scoparia), pitted morningglory (Ipomoea lacunosa), purple nutsedge (Cyperus rotundus), common ragweed (Ambrosia elation), mustard (Brassica nigra), guineagrass (Panicum maximum), […] (Paspalum dilatatum), barnyardgrass (Echinochloa crus-galli), southern sandbur (Cenchrus echinatus), common sowthistle (Sonchus oleraceous), prickly […] spinosa), Italian ryegrass (Lolium multiflorum), common purslane (Portulaca oleracea), broadleaf signalgrass (Brachiaria platyphylla), common groundsel (Senecio vulgaris), common chickweed (Stellaria media), Virginia dayflower (Commelina virginica), annual bluegrass (Poa annua), naked crabgrass (Digitaria nuda), […] cochinchinensis), quackgrass (Elytrigia repens), Canada horseweed (Conyza canadensis), field bindweed (Convolvulus arvensis), […] (Bidens bipinnata), common mallow (Malva sylvestris), Russian thistle (Salsola kali), and sugarcane (Saccharum officinarum) were planted and treated preemergence with test chemicals formulated in a non-phytotoxic solvent mixture which included a surfactant. At a different time, sugarcane was treated with postemergence applications of some of the test chemicals formulated in the same manner. Plants were approximately 3- to 4-leaf stage for the postemergence treatments. Treated plants and controls were maintained in a greenhouse for 14 to 21 days, after which time all species were compared to controls and visually evaluated. […] A dash (-) response means no test result.
# large crabgrass = format: in vivo, Digitaria sanguinalis; details: scale 0 to 100
# From the text: as §1
# kochia = format: in vivo, Kochia scoparia; details: scale 0 to 100
# From the text: as §1
# mustard = format: in vivo, Brassica nigra; details: scale 0 to 100
# From the text: as §1
# guineagrass = format: in vivo, Panicum maximum; details: scale 0 to 100
# From the text: as §1
# dallisgrass = format: in vivo, Paspalum dilatatum; details: scale 0 to 100
# From the text: as §1
# barnyardgrass = format: in vivo, Echinochloa crus-galli
# From the text: as §1
# southern sandbur = format: in vivo, Cenchrus echinatus; details: scale 0 to 100
# From the text: as §1
# Italian ryegrass = format: in vivo, Lolium multiflorum; details: scale 0 to 100
# From the text: as §1
# common purslane = format: in vivo, Portulaca oleracea; details: scale 0 to 100
# From the text: as §1
# common groundsel = format: in vivo, Senecio vulgaris; details: scale 0 to 100; for Plant response rating, Groundsel: 31 g ai/ha
# From the text: as §1
# annual bluegrass = format: in vivo, Poa annua; details: scale 0 to 100
# From the text: as §1
# quackgrass = format: in vivo, Elytrigia repens; details: scale 0 to 100
# From the text: as §1
# field bindweed = format: in vivo, Convolvulus arvensis; details: scale 0 to 100
# From the text: as §1
# common mallow = format: in vivo, Malva sylvestris; details: scale 0 to 100
# From the text: as §1
# [1] = 62 g ai/ha, Preemergence, scale 0 to 100
# [2] = 125 g ai/ha, preemergence, scale 0 to 100
# [3] = Preemergence, 31 g ai/ha, scale 0 to 100
smiles,measurement,setting,value
Cn1nc(OC(F)F)c(CS(=O)(=O)c2cccc[n+]2[O-])c1C(F)(F)F [Compound 80],"Plant response rating, Surinam Grass","Surinam grass; 16 g ai/ha, preemergence",0
same,Surinam Grass plant response rating,"Surinam grass; 125 g ai/ha, preemergence",100
same,"Plant response rating, Surinam Grass","Surinam grass; Preemergence, 62 g ai/ha",98
same,"Plant response rating, Surinam Grass","Surinam grass; Preemergence, 31 g ai/ha",80
same,"Plant response rating, Crabgrass, Large","large crabgrass; 16 g ai/ha, preemergence",40
same,"Crabgrass, Large plant response rating","large crabgrass; 62 g ai/ha, Preemergence",80
same,"Crabgrass, Large plant response rating","large crabgrass; 125 g ai/ha, preemergence",90
same,"Plant response rating, Crabgrass, Large","large crabgrass; Preemergence, 31 g ai/ha",80
same,"Plant response rating, Kochia","kochia; 16 g ai/ha, preemergence",0
same,Kochia plant response rating,"kochia; 62 g ai/ha, Preemergence",35
same,Kochia plant response rating,"kochia; 125 g ai/ha, preemergence",90
same,"Plant response rating, Kochia","kochia; Preemergence, 31 g ai/ha",0
same,"Plant response rating, Black Mustard","mustard; 16 g ai/ha, preemergence",0
same,Black Mustard plant response rating,"mustard; 62 g ai/ha, Preemergence",0
same,Black Mustard plant response rating,"mustard; 125 g ai/ha, preemergence",50
same,"Plant response rating, Black Mustard","mustard; Preemergence, 31 g ai/ha",0
same,"Plant response rating, Guineagrass","guineagrass; 16 g ai/ha, preemergence",75
same,Guineagrass plant response rating,"guineagrass; 62 g ai/ha, Preemergence",98
same,Guineagrass plant response rating,"guineagrass; 125 g ai/ha, preemergence",100
same,"Plant response rating, Guineagrass","guineagrass; Preemergence, 31 g ai/ha",98
same,"Plant response rating, Dallisgrass","dallisgrass; 16 g ai/ha, preemergence",40
same,Dallisgrass plant response rating,"dallisgrass; 62 g ai/ha, Preemergence",95
same,Dallisgrass plant response rating,"dallisgrass; 125 g ai/ha, preemergence",100
same,"Plant response rating, Dallisgrass","dallisgrass; Preemergence, 31 g ai/ha",80
same,"Plant response rating, Barnyardgrass","barnyardgrass; 16 g ai/ha, preemergence, scale 0 to 100 (0 no effect, 100 complete control)",85
same,Barnyardgrass plant response rating,barnyardgrass; [1],95
same,Barnyardgrass plant response rating,barnyardgrass; [2],100
same,"Plant response rating, Barnyardgrass",barnyardgrass; [3],90
same,"Plant response rating, Sandbur","southern sandbur; 16 g ai/ha, preemergence",65
same,Sandbur plant response rating,"southern sandbur; 125 g ai/ha, preemergence",100
same,"Plant response rating, Sandbur","southern sandbur; Preemergence, 62 g ai/ha",95
same,"Plant response rating, Sandbur","southern sandbur; Preemergence, 31 g ai/ha",80
same,"Plant response rating, Ryegrass, Italian","Italian ryegrass; 16 g ai/ha, preemergence",15
same,"Ryegrass, Italian plant response rating","Italian ryegrass; 125 g ai/ha, preemergence",65
same,"Plant response rating, Ryegrass, Italian","Italian ryegrass; Preemergence, 62 g ai/ha",65
same,"Plant response rating, Ryegrass, Italian","Italian ryegrass; Preemergence, 31 g ai/ha",20
same,"Plant response rating, Purslane","common purslane; 16 g ai/ha, preemergence",0
same,Purslane plant response rating,"common purslane; 62 g ai/ha, Preemergence",0
same,Purslane plant response rating,"common purslane; 125 g ai/ha, preemergence",0
same,"Plant response rating, Purslane","common purslane; Preemergence, 31 g ai/ha",0
same,Groundsel plant response rating,"common groundsel; 62 g ai/ha, Preemergence",0
same,Groundsel plant response rating,"common groundsel; 125 g ai/ha, preemergence",50
same,"Plant response rating, Groundsel",common groundsel; Preemergence,0
same,"Plant response rating, Bluegrass","annual bluegrass; 16 g ai/ha, preemergence",25
same,Bluegrass plant response rating,"annual bluegrass; 62 g ai/ha, Preemergence",90
same,Bluegrass plant response rating,"annual bluegrass; 125 g ai/ha, preemergence",95
same,"Plant response rating, Bluegrass","annual bluegrass; Preemergence, 31 g ai/ha",25
same,"Plant response rating, Quackgrass","quackgrass; 16 g ai/ha, preemergence",10
same,Quackgrass plant response rating,"quackgrass; 62 g ai/ha, Preemergence",65
same,Quackgrass plant response rating,"quackgrass; 125 g ai/ha, preemergence",75
same,"Plant response rating, Quackgrass","quackgrass; Preemergence, 31 g ai/ha",65
same,"Plant response rating, Field Bindweed","field bindweed; 16 g ai/ha, preemergence",0
same,Field Bindweed plant response rating,"field bindweed; 62 g ai/ha, Preemergence",0
same,Field Bindweed plant response rating,"field bindweed; 125 g ai/ha, preemergence",0
same,"Plant response rating, Field Bindweed","field bindweed; Preemergence, 31 g ai/ha",0
same,"Plant response rating, Mallow","common mallow; 16 g ai/ha, preemergence",0
same,Mallow plant response rating,"common mallow; 62 g ai/ha, Preemergence",0
same,Mallow plant response rating,"common mallow; 125 g ai/ha, preemergence",65
same,"Plant response rating, Mallow","common mallow; Preemergence, 31 g ai/ha",0
Cn1nc(C(F)(F)F)c(C[S+]([O-])c2ccc(F)c[n+]2[O-])c1OC(F)F (stereo not shown) [Compound 58],Surinam Grass plant response rating,"Surinam grass; 125 g ai/ha, preemergence",100
same,Surinam Grass plant response rating,"Surinam grass; 250 g ai/ha, preemergence",100
same,"Plant response rating, Surinam Grass","Surinam grass; Preemergence, 62 g ai/ha",98
same,"Plant response rating, Surinam Grass","Surinam grass; Preemergence, 31 g ai/ha",80
same,"Crabgrass, Large plant response rating","large crabgrass; 62 g ai/ha, Preemergence",98
same,"Crabgrass, Large plant response rating","large crabgrass; 125 g ai/ha, preemergence",100
same,"Crabgrass, Large plant response rating","large crabgrass; 250 g ai/ha, preemergence",100
same,"Plant response rating, Crabgrass, Large","large crabgrass; Preemergence, 31 g ai/ha",75
same,Kochia plant response rating,"kochia; 62 g ai/ha, Preemergence",40
same,Kochia plant response rating,"kochia; 125 g ai/ha, preemergence",100
same,Kochia plant response rating,"kochia; 250 g ai/ha, preemergence",100
same,"Plant response rating, Kochia","kochia; Preemergence, 31 g ai/ha",20
same,Black Mustard plant response rating,"mustard; 62 g ai/ha, Preemergence",60
same,Black Mustard plant response rating,"mustard; 125 g ai/ha, preemergence",100
same,Black Mustard plant response rating,"mustard; 250 g ai/ha, preemergence",100
same,"Plant response rating, Black Mustard","mustard; Preemergence, 31 g ai/ha",50
same,Guineagrass plant response rating,"guineagrass; 62 g ai/ha, Preemergence",100
same,Guineagrass plant response rating,"guineagrass; 125 g ai/ha, preemergence",100
same,Guineagrass plant response rating,"guineagrass; 250 g ai/ha, preemergence",100
same,"Plant response rating, Guineagrass","guineagrass; Preemergence, 31 g ai/ha",90
same,Dallisgrass plant response rating,"dallisgrass; 62 g ai/ha, Preemergence",90
same,Dallisgrass plant response rating,"dallisgrass; 125 g ai/ha, preemergence",98
same,Dallisgrass plant response rating,"dallisgrass; 250 g ai/ha, preemergence",98
same,"Plant response rating, Dallisgrass","dallisgrass; Preemergence, 31 g ai/ha",75
same,Barnyardgrass plant response rating,barnyardgrass; [1],100
same,Barnyardgrass plant response rating,barnyardgrass; [2],100
same,Barnyardgrass plant response rating,"barnyardgrass; 250 g ai/ha, preemergence, scale 0 to 100",100
same,"Plant response rating, Barnyardgrass",barnyardgrass; [3],90
same,Sandbur plant response rating,"southern sandbur; 125 g ai/ha, preemergence",100
same,Sandbur plant response rating,"southern sandbur; 250 g ai/ha, preemergence",100
same,"Plant response rating, Sandbur","southern sandbur; Preemergence, 62 g ai/ha",100
same,"Plant response rating, Sandbur","southern sandbur; Preemergence, 31 g ai/ha",80
same,"Ryegrass, Italian plant response rating","Italian ryegrass; 125 g ai/ha, preemergence",100
same,"Ryegrass, Italian plant response rating","Italian ryegrass; 250 g ai/ha, preemergence",100
same,"Plant response rating, Ryegrass, Italian","Italian ryegrass; Preemergence, 62 g ai/ha",98
same,"Plant response rating, Ryegrass, Italian","Italian ryegrass; Preemergence, 31 g ai/ha",50
same,Purslane plant response rating,"common purslane; 62 g ai/ha, Preemergence",25
same,Purslane plant response rating,"common purslane; 125 g ai/ha, preemergence",80
same,Purslane plant response rating,"common purslane; 250 g ai/ha, preemergence",100
same,"Plant response rating, Purslane","common purslane; Preemergence, 31 g ai/ha",0
same,Groundsel plant response rating,"common groundsel; 62 g ai/ha, Preemergence",60
same,Groundsel plant response rating,"common groundsel; 125 g ai/ha, preemergence",85
same,Groundsel plant response rating,"common groundsel; 250 g ai/ha, preemergence",100
same,"Plant response rating, Groundsel",common groundsel; Preemergence,20
same,Bluegrass plant response rating,"annual bluegrass; 62 g ai/ha, Preemergence",70
same,Bluegrass plant response rating,"annual bluegrass; 125 g ai/ha, preemergence",95
same,Bluegrass plant response rating,"annual bluegrass; 250 g ai/ha, preemergence",100
same,"Plant response rating, Bluegrass","annual bluegrass; Preemergence, 31 g ai/ha",0
same,Quackgrass plant response rating,"quackgrass; 62 g ai/ha, Preemergence",70
same,Quackgrass plant response rating,"quackgrass; 125 g ai/ha, preemergence",95
same,Quackgrass plant response rating,"quackgrass; 250 g ai/ha, preemergence",100
same,"Plant response rating, Quackgrass","quackgrass; Preemergence, 31 g ai/ha",35
same,Field Bindweed plant response rating,"field bindweed; 62 g ai/ha, Preemergence",0
same,Field Bindweed plant response rating,"field bindweed; 125 g ai/ha, preemergence",20
same,Field Bindweed plant response rating,"field bindweed; 250 g ai/ha, preemergence",65
same,"Plant response rating, Field Bindweed","field bindweed; Preemergence, 31 g ai/ha",0
same,Mallow plant response rating,"common mallow; 62 g ai/ha, Preemergence",25
same,Mallow plant response rating,"common mallow; 125 g ai/ha, preemergence",90
same,Mallow plant response rating,"common mallow; 250 g ai/ha, preemergence",100
